IC50 data for 91 compounds are collected here from PubChem BioAssay AID1417 (Emory University Molecular Libraries Screening Center, 2008).

The assay deals with Induced myeloid leukemia cell differentiation protein Mcl-1 (Homo sapiens) (UniProt Q07820). The assay is described as follows: Mcl-1 Noxa peptide disruption concentration-response – biochemical, TR-FRET, dose response (AID 1417). As to conditions: Mcl-1/Noxa peptide interaction, cell-free TR-FRET (terbium/rhodamine), 2 h; measured here: absolute IC50.
Induced myeloid leukemia cell differentiation protein Mcl-1 (Homo sapiens), sequence (Q07820 whole entry, looked up): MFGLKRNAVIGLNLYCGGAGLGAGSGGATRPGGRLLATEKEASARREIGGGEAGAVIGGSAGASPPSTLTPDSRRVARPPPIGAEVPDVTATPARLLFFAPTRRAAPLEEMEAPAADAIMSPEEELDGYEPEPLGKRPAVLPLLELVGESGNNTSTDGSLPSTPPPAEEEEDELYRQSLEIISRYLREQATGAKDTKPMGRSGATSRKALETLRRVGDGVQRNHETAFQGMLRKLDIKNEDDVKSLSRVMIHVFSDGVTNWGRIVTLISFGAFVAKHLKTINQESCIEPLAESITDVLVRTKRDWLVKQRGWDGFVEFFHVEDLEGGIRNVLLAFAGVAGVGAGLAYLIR

`CC1=NN(c2cccc(C(=O)O)c2)C(=O)/C1=C\C=C\c1ccco1` yielded an IC50 of 4.5 µM. In the case of `Cc1cc(C)c(S(=O)(=O)Nc2cc(SCC(=O)O)c(O)c3ccccc23)cc1C` it was less than 0.4 µM. In the case of `CCCSC1=N/C(=C\C=C\c2ccco2)C(=O)S1` it was 3.1 µM; in that of `CC1=C(C#N)C(=O)NC(=O)/C1=C\c1ccc(-c2ccc(C)cc2[N+](=O)[O-])o1`, less than 0.4 µM. The value for `CN=c1scc(C)n1/N=C/c1ccc(O)c(O)c1O` was 1.76 µM; that for `O=C1NC(=O)N(Cc2ccco2)C(=O)/C1=C/c1ccc(-c2cccc([N+](=O)[O-])c2)o1` was 3.28 µM.

`N[C@@H](Cc1cc(I)c(Oc2ccc(O)c(I)c2)c(I)c1)C(=O)O`: the IC50 was less than 0.4 µM. The value for `Nc1ccc2c(c1Cl)C(=O)c1ccc(N)c(Cl)c1C2=O` was less than 0.4 µM; that for `Cc1ccc(-n2c(O)c(/C=N/Nc3ccc(S(=O)(=O)N4CCOCC4)cc3[N+](=O)[O-])c3ccccc3c2=O)c(C)c1` was more than 54 µM; that for `COc1ccc(C(c2c(O)ccc3ccccc23)N2CCOCC2)c(OC)c1` (stereo unspecified) was less than 0.4 µM. In the case of `O=C1N=c2ccccc2=C1c1sc(Nc2ccc(O)cc2)nc1O` it was 1.2 µM. Regarding `COc1ccccc1CNC(=O)COC(=O)c1cc(-c2ccco2)nc2ccccc12`, the IC50 turned out to be 1.8 µM. The compound `Cc1ccc(-c2nn(-c3ccccc3)cc2/C=C2\SC(=S)N(CC(=O)O)C2=O)cc1` returned an IC50 of 4.63 µM.

Consider `COc1ccc2c(=O)c3c(=O)n(-c4ccc(C)cc4)c(-c4ccccc4)nc3oc2c1`, for which the IC50 is more than 54 µM. In the case of `CCOC(=O)c1sc2nc3c(SCCC(=O)O)cc(C(=O)c4cc(OC)ccc4O)cn3c(=O)c2c1C` it was 0.955 µM; in that of `COc1cc(-c2nnc(SCc3cc(=O)oc4cc(O)c(O)cc34)o2)cc(OC)c1OC`, less than 0.4 µM. For `O=C1/C(=C/c2ccc(O)c(O)c2)Oc2cc(O)ccc21`, the IC50 came to 1.16 µM. As to `O=C(COC(=O)Cn1cnc2ccccc21)Nc1ccc2c(c1)C(=O)c1ccccc1C2=O`, the IC50 stood at 2.59 µM. Against the preceding compound, the IC50 is about 2.2-fold higher. On to `C=CCOC(=O)c1cc(-c2ccc(/C=C3\C(=O)NC(=O)C(C#N)=C3C)o2)ccc1Cl`, for which the IC50 is less than 0.4 µM.

As to `Cc1ccc(NC2=C(NC(=O)c3ccccc3)C(=O)c3ccccc3C2=O)cc1Cl`, the IC50 turned out to be 3.9 µM. In the case of `COCCN1Cc2cccc(C(=O)Nc3cccc(C)c3C)c2C1=O` it was more than 54 µM; in that of `O=C(N/N=C/c1ccc(O)cc1)c1cccc(N/N=C/c2ccc(O)cc2)c1`, 2.05 µM; in that of `O=C1C=CC(=O)C(C2=C3C(=O)N(CCc4ccccc4)CC(=O)N3CCC2)=C1`, more than 54 µM.

For the compound `CC1=NN(c2ccccc2)C(=O)/C1=C/c1c(O)n(-c2ccc(F)c(Cl)c2)[nH]c1=O`, the IC50 was determined as 4.79 µM. `O=C(O)c1ccc2nc(-c3ccco3)c(-c3ccco3)nc2c1`: the IC50 is 1.63 µM.

Consider `COc1ccc(N2Cc3cccc(C(=O)O)c3C2=O)cc1`, for which the IC50 was found to be 4.79 µM. In the case of `Oc1nc(Nc2ccc(F)cc2)sc1/C=C1\C=Nc2ccccc21` it was 4.32 µM; in that of `COc1ccc(-n2c(N)c(-c3nc4ccccc4n3C)sc2=S)cc1`, more than 54 µM; in that of `CC(C)(C)c1cc(-c2csc(Nc3ccccc3)[n+]2Cc2ccc(C(=O)O)cc2)cc(C(C)(C)C)c1O`, 1.32 µM. In the case of `Cc1cccc(C)c1NC(=O)CSc1nnc(-c2ccco2)c(-c2ccco2)n1`, the IC50 came out at 1.93 µM. In the case of `COc1ccc(C(=O)c2sc3nc(-c4ccccc4)ccc3c2N)cc1OC` it was more than 54 µM; in that of `Cc1ccc(N2CC(C(=O)Nc3ccc(N(C)C)cc3)CC2=O)cc1C` (stereo unspecified), more than 54 µM. The value for `O=C1NC(=S)S/C1=C\C=C\c1ccc([N+](=O)[O-])o1` was less than 0.4 µM; that for `C=CCOC(=O)/C(=C\c1ccccc1)NC(=O)c1ccc(C)cc1` was more than 54 µM; that for `Cc1ccc(-c2cc(C(=O)OCC(=O)N(C)C3CCS(=O)(=O)C3)c3ccccc3n2)o1` (stereo unspecified) was 2.98 µM. In the case of `Cc1cc(C(F)F)n2nc(C(=O)Nc3sc4c(c3C(N)=O)CCC4)nc2n1` it was 11.4 µM; in that of `Cc1cccc2cc(/C=N/NC(=O)c3ccccc3O)c(Cl)nc12`, 6.09 µM; in that of `Cc1ccc(/C=C/C(=O)Nc2ccc(N(C)C)cc2)o1`, less than 0.4 µM.

In the case of `Cc1cc(C)c(S(=O)(=O)/N=C2/C=C(Sc3ncn[nH]3)C(=O)c3ccccc32)cc1C`, the IC50 was less than 0.4 µM. The value for `O=C(O)CCN1C(=O)/C(=C/c2cn(-c3ccccc3)nc2-c2cccs2)SC1=S` was more than 54 µM; that for `CCN(CC)c1ccc(NC(=O)/C=C\c2ccccc2Cl)cc1` was less than 0.4 µM; that for `CC(=O)c1ccc2c(c1)C1C=CCC1C(C(=O)O)N2` (stereo unspecified) was less than 0.4 µM. In turn, `CNCc1ccccc1OCc1ccccc1F` had an IC50 of 5.27 µM. Regarding `CC(C)Oc1ccc(C(=O)Nc2ccc(N(C)C)cc2)cc1`, the concentration for half-maximal inhibition (IC50) is more than 54 µM.

With `O=[N+]([O-])c1cc(CN2CCOCC2)c2cccnc2c1O`, the IC50 was less than 0.4 µM. Turning to `O=c1cc(/N=C/c2coc3c(ccc4ccccc43)c2=O)[nH]c(=S)[nH]1`, the IC50 amounted to 4.08 µM. The value for `O=C(Nc1nc(-c2ccncc2)cs1)c1ccco1` was 3.61 µM; that for `NC(=O)c1c(NC(=O)CSc2nnc(-c3ccco3)n2-c2ccccc2)sc2c1CCC2` was 5.75 µM; that for `O=C(OCC1O[C@@H](OC(=O)c2cc(O)c(O)c(O)c2)[C@@H](OC(=O)c2cc(O)c(O)c(O)c2)[C@@H](OC(=O)c2cc(O)c(O)c(O)c2)[C@@H]1OC(=O)c1cc(O)c(O)c(O)c1)c1cc(O)c(O)c(O)c1` (stereo partly specified) was less than 0.4 µM. The value for `CN1CCN(CCCN2c3ccccc3Sc3ccc(Cl)cc32)CC1` was 4.06 µM.

On to `CC(=O)NC1=C(NC2CCS(=O)(=O)C2)C(=O)c2ccccc2C1=O` (stereo unspecified), for which the IC50 is 2.77 µM.

In the case of `Cc1cccc(NC(=O)c2cccs2)n1`, the IC50 was more than 54 µM. Regarding `Cc1ccc(-c2cc(C(=O)O)c3cc(Br)ccc3n2)o1`, the IC50 worked out at 4.68 µM.

Regarding `Cc1c(Cc2ccccc2)c(=O)oc2c(O)c(O)ccc12`, the IC50 came to 33.9 µM. For the compound `Cc1cccc(OCCCC(=O)Nc2ccc(N(C)C)cc2)c1`, the IC50 amounted to 1.8 µM. This IC50 is about 19-fold lower than that of the compound before. In turn, `CC1=NOC(=O)/C1=C\c1ccc(-c2ccc(Cl)cc2Cl)o1` registered an IC50 of less than 0.4 µM. `CCN(CC)C(=O)CC(c1cc(OC)c(OC)c(OC)c1)c1c(OC)cc(OC)c2c(-c3ccccc3)cc(=O)oc12` (stereo unspecified): the IC50 stood at 4.05 µM.

`O=C1/C(=C/c2ccccn2)SC(=S)N1c1ccc(O)cc1` gave an IC50 of 8.38 µM. In the case of `CN1CCc2cccc3c2[C@H]1Cc1ccc(O)c(O)c1-3`, the IC50 was less than 0.4 µM. In the case of `O=C1C(Cl)=C(Nc2ccc3cn[nH]c3c2)C(=O)c2ccccc21` it was less than 0.4 µM. The value for `Cc1nn(Cc2ccc(F)cc2)c2sc(C(=O)Nc3ccc(N4CCOCC4)cc3N3CCOCC3)cc12` was more than 54 µM. Consider `O=C(Nc1nccs1)c1cccc(N2C(=O)c3cccc4c([N+](=O)[O-])ccc(c34)C2=O)c1`, for which the IC50 was more than 54 µM. In the case of `Nc1cc2nc[nH]c2cc1N`, the IC50 was determined as 52.8 µM. `O=C(O)CSc1cc(NS(=O)(=O)c2cccc([N+](=O)[O-])c2)c2ccccc2c1O` gave an IC50 of less than 0.4 µM. In the case of `CN(CCC#N)C(=O)COC(=O)c1c2c(nc3ccccc13)/C(=C/c1ccco1)CC2` it was 1.63 µM. As to `CCN(CC)c1ccc(NC(=O)c2ccccc2OCC(=O)OC)cc1`, the IC50 was more than 54 µM. The compound `O=C(C1=C[C@@H](c2ccc(C(F)(F)F)cc2)C[C@@H](OCc2ccc(CO)cc2)O1)N1CCN(Cc2ccccc2)CC1` registered an IC50 of more than 54 µM. In the case of `COc1cc(/C=C/c2nc3ccccc3c(=O)n2-c2cccc(O)c2)ccc1O` it was 10.5 µM. As for `N=c1c(C(=O)NCc2ccc3c(c2)OCO3)cc2c(=O)n3ccccc3nc2n1Cc1cccnc1`, the IC50 was determined as 3.26 µM.

For the compound `COc1cc(C(Nc2ccccn2)c2ccc3ccc(C)nc3c2O)cc(OC)c1O` (stereo unspecified), the IC50 was less than 0.4 µM. The value for `O=C(O)CCn1cc(C=C2C(=O)NC(=S)NC2=O)c(-c2cccc(Br)c2)n1` was 2.18 µM; that for `Cc1cc(SCC(=O)N/N=C/c2ccc(O)c(O)c2O)c(C)cc1Br` was less than 0.4 µM; that for `O=C(O)c1cccc2c1NC(C(=O)O)C1CC(Sc3ccccc3[N+](=O)[O-])C(Cl)C21` (stereo unspecified) was 0.881 µM. In the case of `Cc1ccc(NS(=O)(=O)c2cc([N+](=O)[O-])ccc2NNC(=S)Nc2cccc(Cl)c2)c(C)c1` it was more than 54 µM; in that of `Cc1ccc(C(C)C)c(OCc2ccc(C(=O)N/N=C/c3ccc(O)cc3O)cc2)c1`, 13.3 µM; in that of `C/C=C\C=C/C(=O)Nc1cccc(C2=NOC3(C2)C[C@@H](C(N)=O)N(C(=O)c2ccccc2)C3)c1` (stereo partly specified), 50.9 µM.

As to `COc1ccccc1C1C2=C(N=c3s/c(=C/c4cccc(OCC(=O)O)c4)c(=O)n31)c1ccccc1CC2` (stereo unspecified), the IC50 is 2.15 µM. Against the preceding compound, the IC50 is about 24-fold lower.

As to `CCCCc1[nH]nc2c1C1(C(=O)N(CC)c3ccccc31)C(C#N)=C(N)O2` (stereo unspecified), the IC50 is more than 54 µM.

Take `O=C(Cc1cccs1)N/N=C/C=C\c1ccco1`: the IC50 was more than 54 µM. `COc1cccc(C(=O)Nc2ccc3c(c2)C(=O)c2ccccc2C3=O)c1` registered an IC50 of 2.12 µM.

For `COC(=O)c1ccc2nc(Nc3nc4c(F)cc(F)cc4s3)sc2c1`, the IC50 was less than 0.4 µM. `Nc1c(C(=O)NCC2CCCO2)sc2nc3c(c(-c4ccco4)c12)CC/C3=C\c1ccco1` (stereo unspecified): the 50% inhibitory concentration (IC50) was 0.8 µM. In other words, the sub-micromolar range. The value for `Nc1ccc(-c2nc3cc([N+](=O)[O-])ccc3o2)cc1` was 7.16 µM; that for `COc1ccc(/C=C2\SC(=O)N(CCC(=O)Nc3ccc(S(=O)(=O)Nc4nccs4)cc3)C2=O)cc1` was less than 0.4 µM.

`Cc1ccc(/C=C2\SC(=S)N(Cc3ccccc3)C2=O)o1` had an IC50 of more than 54 µM. The value for `Cc1cccc(N=C2NC(=O)/C(=C/C=C/c3ccco3)S2)c1C` was 4.15 µM; that for `O=C1/C(=C/C=C/c2ccco2)SC(=S)N1NS(=O)(=O)c1ccccc1` was 1.41 µM. In the case of `O=C(Nc1nc2ccccc2[nH]1)c1ccc(Cl)c([N+](=O)[O-])c1` it was 8.74 µM. Turning to `Cn1c(SCC(=O)Nc2ccc3nc(SCC(=O)N4CCCC4)sc3c2)nnc1-c1ccc(N)cc1`, the IC50 was found to be 0.688 µM.

`CC(C)Nc1nnc(SCC(=O)Nc2ccc3c(c2)C(=O)c2ccccc2C3=O)s1`: the IC50 stood at 2.01 µM. As for `O=[N+]([O-])c1ccc(N/N=C/c2ccc(O)c(O)c2O)c(S(=O)(=O)N2CCOCC2)c1`, the IC50 was less than 0.4 µM.
